Drawing on patent US20230286958A1, “PLASMA KALLIKREIN INHIBITORS” (Merck Sharp & Dohme LLC, priority 2020, published 2023), this text covers IC50 for 18 compounds.

Bounds are passed on as bounds.

In test [1] the target is Human plasma kallikrein (Homo sapiens (Human), UniProt P03952). Description: Kallikrein Assay (fluorogenic substrate Acetyl-K-P-R-AFC). In kind it is biochemical. To be noted: Plasma Kallikrein (PKal). In short, it runs like this: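 Ki is derived from IC50 with the Cheng-Prusoff equation, and IC50 from the inflection point of a four-parameter logistic curve. The rate of AFC release is read with 0.5 nM purified enzyme and […] substrate at room temperature or 37 °C.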

Test [2] deals with human Factor XIa (Homo sapiens (Human), UniProt P03951). The test is described as follows: Factor XIa Assay (fluorogenic substrate GPR-AFC). To be noted: Factor XIa (FXIa). The format is biochemical.
Chain of human Factor XIa (P03951 388-625 limits assumed): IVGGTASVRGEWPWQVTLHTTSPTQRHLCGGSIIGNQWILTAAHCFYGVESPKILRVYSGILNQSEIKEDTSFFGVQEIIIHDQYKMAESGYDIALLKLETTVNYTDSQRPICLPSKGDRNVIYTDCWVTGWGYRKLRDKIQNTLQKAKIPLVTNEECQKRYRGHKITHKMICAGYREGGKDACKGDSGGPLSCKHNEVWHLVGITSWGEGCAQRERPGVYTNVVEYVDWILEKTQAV
Chain of human Factor XIa (P03951 19-387 partner limits assumed): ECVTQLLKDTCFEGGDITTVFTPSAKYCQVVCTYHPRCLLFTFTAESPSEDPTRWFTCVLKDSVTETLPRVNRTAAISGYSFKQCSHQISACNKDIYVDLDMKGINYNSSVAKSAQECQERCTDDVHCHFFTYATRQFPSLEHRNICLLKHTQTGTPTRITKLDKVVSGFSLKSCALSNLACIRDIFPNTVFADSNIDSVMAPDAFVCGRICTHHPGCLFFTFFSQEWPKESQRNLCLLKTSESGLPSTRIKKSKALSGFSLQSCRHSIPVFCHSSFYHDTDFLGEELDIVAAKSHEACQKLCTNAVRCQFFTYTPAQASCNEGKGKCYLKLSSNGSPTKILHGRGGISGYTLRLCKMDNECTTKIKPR

Chain of Human plasma kallikrein (P03952 391-638): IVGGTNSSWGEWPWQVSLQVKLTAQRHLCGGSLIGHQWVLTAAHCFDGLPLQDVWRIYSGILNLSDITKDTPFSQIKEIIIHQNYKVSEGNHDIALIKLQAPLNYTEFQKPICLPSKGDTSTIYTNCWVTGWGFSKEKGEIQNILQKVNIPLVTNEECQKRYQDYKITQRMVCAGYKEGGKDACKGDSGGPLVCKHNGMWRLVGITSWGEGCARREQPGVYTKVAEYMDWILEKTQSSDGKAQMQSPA
Chain of Human plasma kallikrein (P03952 20-390 partner): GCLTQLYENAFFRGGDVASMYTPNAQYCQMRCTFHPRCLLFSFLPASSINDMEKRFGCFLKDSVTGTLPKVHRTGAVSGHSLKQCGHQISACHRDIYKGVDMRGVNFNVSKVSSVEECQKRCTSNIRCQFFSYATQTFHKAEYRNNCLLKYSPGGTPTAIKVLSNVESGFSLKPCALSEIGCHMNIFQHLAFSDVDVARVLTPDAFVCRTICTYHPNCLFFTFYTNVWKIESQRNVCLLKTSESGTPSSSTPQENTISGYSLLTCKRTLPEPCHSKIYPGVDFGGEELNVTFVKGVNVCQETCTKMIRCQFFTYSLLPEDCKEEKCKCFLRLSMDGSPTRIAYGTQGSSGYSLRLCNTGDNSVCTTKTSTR

For the compound `Cc1cc(N2C[C@H]3C[C@H]3C2=O)ncc1C(C)n1cc(NC(=O)c2nc(-c3c(C(F)F)ccc(Cl)c3F)cnc2CO)cn1` (single isomer, unassigned) [Example 204, 6-(3-Chloro-6-(difluoromethyl)-2-fluorophenyl)-3-(hydroxymethyl)-N-(1-((R or S)-1-(4-methyl-6-((1R,5S)-2-oxo-3-azabicyclo[3.1.0]hexan-3-yl)pyridin-3-yl)ethyl)-1H-pyrazol-4-yl)pyrazine-2-carboxamide], the IC50 in test [1] was 5.9 nM; in test [2], 2520 nM.

With `Cc1cc(C(C)n2cc(NC(=O)c3nc(-c4c(C(F)F)ccc(Cl)c4F)cnc3C(C)O)cn2)cnc1N1C[C@H]2C[C@H]2C1=O` (single isomer, unassigned) [Example 213, 6-(3-Chloro-6-(difluoromethyl)-2-fluorophenyl)-3-((Ror S)-1-hydroxyethyl)-N-(1-((R or S)-1-(5-methyl-6-((1R,5S)-2-oxo-3-azabicyclo[3.1.0]hexan-3-yl)pyridin-3-yl)ethyl)-1H-pyrazol-4-yl)pyrazine-2-carboxamide], the half-inhibitory concentration (IC50) was found to be 0.9 nM in test [1] and 2030 nM in test [2].

Regarding `Cc1ncc(-c2c(C(F)F)ccc(Cl)c2F)nc1C(=O)Nc1cnn(C(C)c2cnc(N3C[C@H]4C[C@H]4C3=O)c3c2OC(F)(F)O3)c1` (single isomer, unassigned) [Example 246, 6-(3-Chloro-6-(difluoromethyl)-2-fluorophenyl)-N-(1-((R or S)-1-(2,2-difluoro-4-((1R,5S)-2-oxo-3-azabicyclo[3.1.0]hexan-3-yl)-[1,3]dioxolo[4,5-c]pyridin-7-yl)ethyl)-1H-pyrazol-4-yl)-3-methylpyrazine-2-carboxamide], the IC50 is 6 nM in test [1] and 6560 nM in test [2].

For the compound `Cc1cc(C(C)n2cc(NC(=O)c3nc(-c4c(C(F)F)ccc(Cl)c4F)cnc3C)cn2)cnc1N1C[C@H]2C[C@H]2C1=O` (single isomer, unassigned) [Example 120, 6-(3-Chloro-6-(difluoromethyl)-2-fluorophenyl)-3-methyl-N-(1-((R or S)-1-(5-methyl-6-((1R,5S)-2-oxo-3-azabicyclo[3.1.0]hexan-3-yl)pyridin-3-yl)ethyl)-1H-pyrazol-4-yl)pyrazine-2-carboxamide], the results for the IC50 in test [1] and in test [2] were 0.5 nM and 149 nM, respectively.

In the case of `O=C(Nc1cnn(Cc2cnc(N3C[C@H]4C[C@H]4C3=O)c(F)c2)c1)c1cncc(-c2c(C(F)F)ccc(Cl)c2F)n1` [Example 50, 6-(3-Chloro-6-(difluoromethyl)-2-fluorophenyl)-N-(1-((5-fluoro-6-((1R,5S)-2-oxo-3-azabicyclo[3.1.0]hexan-3-yl)pyridin-3-yl)methyl)-1H-pyrazol-4-yl)pyrazine-2-carboxamide], the IC50 was determined as 5.5 nM in test [1] and 2120 nM in test [2].

Regarding `Cc1ncc(-c2c(C(F)F)ccc(Cl)c2F)nc1C(=O)Nc1cnn(Cc2ncc(N3C[C@H]4C[C@H]4C3=O)cc2F)c1` [Example 138, 6-(3-Chloro-6-(difluoromethyl)-2-fluorophenyl)-N-(1-((3-fluoro-5-((1R,5S)-2-oxo-3-azabicyclo[3.1.0]hexan-3-yl)pyridin-2-yl)methyl)-1H-pyrazol-4-yl)-3-methylpyrazine-2-carboxamide], the results for the IC50 in test [1] and in test [2] were 47 nM and above 10000 nM, respectively.

For `C[C@@H](c1cnc(N2C[C@H]3C[C@H]3C2=O)nc1)n1cc(NC(=O)c2nc(-c3c(C(F)F)ccc(Cl)c3F)cnc2C(O)C(F)(F)F)cn1` (single isomer, unassigned) [Example 176, 6-(3-Chloro-6-(difluoromethyl)-2-fluorophenyl)-N-(1-((S)-1-(2-((1R,5S)-2-oxo-3-azabicyclo[3.1.0]hexan-3-yl)pyrimidin-5-yl)ethyl)-1H-pyrazol-4-yl)-3-((S or R)-2,2,2-trifluoro-1-hydroxyethyl)pyrazine-2-carboxamide], the half-inhibitory concentration (IC50) in test [1] came out at 5.3 nM; in test [2], 4550 nM.

As to `Cc1nc(N2C[C@H]3C[C@H]3C2=O)ncc1Cn1cc(NC(=O)c2nc(-c3c(C(F)F)ccc(Cl)c3F)cnc2C)nn1` [Example 183, 6-(3-Chloro-6-(difluoromethyl)-2-fluorophenyl)-3-methyl-N-(1-((4-methyl-2-((1R,5S)-2-oxo-3-azabicyclo[3.1.0]hexan-3-yl)pyrimidin-5-yl)methyl)-1H-1,2,3-triazol-4-yl)pyrazine-2-carboxamide], the half-inhibitory concentration (IC50) in test [1] is 30.6 nM; in test [2], above 10000 nM.

For the compound `Cc1cc(C(C)n2cc(NC(=O)c3nc(-c4c(C(F)F)ccc(Cl)c4F)cnc3C(C)O)cn2)nnc1N1C[C@H]2C[C@H]2C1=O` (single isomer, unassigned) [Example 229, 6-(3-Chloro-6-(difluoromethyl)-2-fluorophenyl)-3-((R or S)-1-hydroxyethyl)-N-(1-((S or R)-1-(5-methyl-6-((1R,5S)-2-oxo-3-azabicyclo[3.1.0]hexan-3-yl)pyridazin-3-yl)ethyl)-1H-pyrazol-4-yl)pyrazine-2-carboxamide], the half-maximal inhibitory concentration (IC50) in test [1] is 0.37 nM; in test [2] it was 178 nM.

As for `Cc1ncc(-c2c(C(F)F)ccc(Cl)c2F)nc1C(=O)Nc1cnn(C(CO)c2ccc(N3CC4CC4C3=O)nc2)c1` (single isomer, unassigned) [Example 163, 6-(3-Chloro-6-(difluoromethyl)-2-fluorophenyl)-N-(1-((S or R)-2-hydroxy-1-(6-((1S,5R or 1R,5S)-2-oxo-3-azabicyclo[3.1.0]hexan-3-yl)pyridin-3-yl)ethyl)-1H-pyrazol-4-yl)-3-methylpyrazine-2-carboxamide], the IC50 in test [1] is 9.2 nM; in test [2] it was above 10000 nM.

Regarding `Cc1nc(N2C[C@H]3C[C@H]3C2=O)ncc1Cn1cc(NC(=O)c2nc(-c3c(C(F)F)ccc(Cl)c3F)cc(=O)n2C)cn1` [Example 81, 4-(3-Chloro-6-(difluoromethyl)-2-fluorophenyl)-1-methyl-N-(1-((4-methyl-2-((1R,5S)-2-oxo-3-azabicyclo[3.1.0]hexan-3-yl)pyrimidin-5-yl)methyl)-1H-pyrazol-4-yl)-6-oxo-1,6-dihydropyrimidine-2-carboxamide], the IC50 in test [1] was 1.8 nM; in test [2] it was 94 nM.

Consider `Cc1ncc(-c2c(C(F)F)ccc(Cl)c2F)nc1C(=O)Nc1cnn(C(CO)c2cnc(N3C[C@H]4C[C@H]4C3=O)nc2)c1` (single isomer, unassigned) [Example 165, 6-(3-Chloro-6-(difluoromethyl)-2-fluorophenyl)-N-(1-((S or R)-2-hydroxy-1-(2-((1R,5S)-2-oxo-3-azabicyclo[3.1.0]hexan-3-yl)pyrimidin-5-yl)ethyl)-1H-pyrazol-4-yl)-3-methylpyrazine-2-carboxamide], for which the half-maximal inhibitory concentration (IC50) in test [1] was determined as 20.7 nM; in test [2], 2050 nM.

As for `Cc1ccc(Cl)c(F)c1-c1cncc(C(=O)Nc2cnn(C(C)c3cnc(N4C[C@H]5C[C@H]5C4=O)nc3C)c2)n1` (single isomer, unassigned) [Example 109, 6-(3 -Chloro-2-fluoro-6-methylphenyl)-N-(1-((R or S)-1-(4-methyl-2-((1R,5S)-2-oxo-3-azabicyclo[3.1.0]hexan-3-yl)pyrimidin-5-yl)ethyl)-1H-pyrazol-4-yl)pyrazine-2-carboxamide], the IC50 in test [1] came to 5.1 nM; in test [2], 1920 nM.

Regarding `O=C(Nc1cnn(Cc2ccc(N3C[C@H]4C[C@H]4C3=O)nc2)c1)c1cncc(-c2c(C(F)F)ccc(Cl)c2F)n1` [Example 9, 6-(3-Chloro-6-(difluoromethyl)-2-fluorophenyl)-N-(1-((6-((1R,5S)-2-oxo-3-azabicyclo[3.1.0]hexan-3-yl)pyridin-3-yl)methyl)-1H-pyrazol-4-yl)pyrazine-2-carboxamide], the IC50 was 1 nM in test [1] and above 10000 nM in test [2].

Turning to `Cc1ncc(-c2c(C(F)F)ccc(Cl)c2F)nc1C(=O)Nc1cnn(C(C)c2cnc(N3C[C@H]4C[C@H]4C3=O)c(F)c2)c1` (single isomer, unassigned) [Example 52, 6-(3-Chloro-6-(difluoromethyl)-2-fluorophenyl)-N-(1-((R or S)-1-(S-fluoro-6-((1R,5S)-2-oxo-3-azabicyclo[3.1.0]hexan-3-yl)pyridin-3-yl)ethyl)-1H-pyrazol-4-yl)-3-methylpyrazine-2-carboxamide], the concentration for half-maximal inhibition (IC50) in test [1] turned out to be 1.1 nM; in test [2] it was 4830 nM.

In the case of `Cc1nc(N2C[C@H]3C[C@H]3C2=O)ncc1Cn1cc(NC(=O)c2nc(-c3c(C(F)F)ccc(Cl)c3F)cnc2C)cn1` [Example 33, 6-(3-Chloro-6-(difluoromethyl)-2-fluorophenyl)-3-methyl-N-(1-((4-methyl-2-((1R,5S)-2-oxo-3-azabicyclo[3.1.0]hexan-3-yl)pyrimidin-5-yl)methyl)-1H-pyrazol-4-yl)pyrazine-2-carboxamide], the half-inhibitory concentration (IC50) in test [1] was found to be 2.5 nM; in test [2], 875 nM.

Take `Cc1ncc(-c2c(C(F)F)ccc(Cl)c2F)nc1C(=O)Nc1cnn(C(C)c2ncc(N3C[C@H]4C[C@H]4C3=O)cc2Cl)c1` (single isomer, unassigned) [Example 147, N-(1-((R or S)-1-(3-Chloro-5-((1R,5S)-2-oxo-3-azabicyclo[3.1.0]hexan-3-yl)pyridin-2-yl)ethyl)-1H-pyrazol-4-yl)-6-(3-chloro-6-(difluoromethyl)-2-fluorophenyl)-3-methylpyrazine-2-carboxamide]: the 50% inhibitory concentration (IC50) in test [1] came to 2.9 nM; in test [2] it was 7300 nM.

For the compound `CC(c1ccc(N2C[C@H]3C[C@H]3C2=O)cc1)n1cc(NC(=O)c2cncc(-c3c(C(F)F)ccc(Cl)c3F)n2)cn1` (mixture of isomers) [Example 69, 6-(3-Chloro-6-(difluoromethyl)-2-fluorophenyl)-N-(1-((S and R)-1-(4-((1R,5S)-2-oxo-3-azabicyclo[3.1.0]hexan-3-yl)phenyl)ethyl)-1H-pyrazol-4-yl)pyrazine-2-carboxamide], the IC50 in test [1] is 10 nM; in test [2], above 10000 nM.
